EP0312245A2, “Polycyclic compounds and pharmaceutical compositions thereof” (NORISTAN HOLDINGS LIMITED, priority 1987, dated 1989)
Values joined by “and” are separate entries in the source; they are usually repeats but may differ in a detail not shown here. Identical values can stand only once.

Tests used:
[1] = test system: isolated rabbit ear preparation; assay: Rabbit ear perfusion test (adrenaline-induced tone, perfusion pressure); settings: Oryctolagus cuniculus, Table 6, read-out: Corrected mean % change in perfusion pressurre
Experimental: Female New Zealand White rabbits (approximately 4kg) were anaesthetised with Sagatal ® (0.5ml/kg).
The central ear artery was cannulated using a 20 G catheter and the ear cut off at its base. Heparinised (5ml, 200 IU;ml) Krebs bicarbonate solution was perfused through the ear to expel the blood. The ear was placed in a warming jacket at 37°C and attached via the arterial catheter to the perfusion pump. Perfusion of the ear with aerated (95% 025% C02)Krebs bicarbonate solution at 37° C was commenced at a rate of 6.5ml/min using a Watson Marlow peristaltic pump. The perfusion pressure was monitored continuously using a pressure transducer (Type 4-327-1221, Consoliated Electrodynamics) coupled to a Devices Recorder.
Following an equilibration period of 15 minutes, increased tone was induced in the preparation by addition of adrenaline (1µg/ml) to the perfusion fluid.
After a stable tone was observed, various concentrations of test compounds were injected into the perfusion fluid and examined for their effect on the perfusion pressure. The effect of vehicle (0.2ml, 50% Krebs 50% ethanol) was also tested on the ear preparation.

[2] = test system: spontaneously hypertensive rats (SHR ); assay: Antihypertensive test: mean arterial pressure in spontaneously hypertensive rats; type: in vivo, rat; parameters: mean arterial BP (individual rats): unit not given here; settings: SHR, 1mg/kg intravenous; for mean arterial BP (individual rats): rats 1-6, 1 mg/kg; for mean arterial BP, Av. / Average % change in mean arterial BP: standard error of the mean in brackets; for Average % change in mean arterial BP: versus pre-dose control
Experimental: (§1) The effect of Compound 3 on the mean arterial pressure was determined on spontaneously hypertensive rats (SHR ) by means of direct pressure transducing. Groups of 6 male rats of mass 210-300g were used. The average of ten pressure determinations was used. Normotensive (BD-9) rats were used as animal controls, while normal saline solution (containing some traces of polyethylene glycol and ethanol to aid in the solution of the test compounds) was used as solvent and as solvent control.
(§2) After verifying the mass of the animal, it was placed under general anaesthesia by administering 60mgikg pentobarbitone (Sagatal@) intraperitonially. The tracheal tube and carotid artery were both exposed by dissection. An intranule was introduced into the trachea as aid ventilation. The carolid artery was canalated and coupled to a pressure sensor. The sysolic, diastolic and mean arterial pressure were monitored via a Spacelab 514 patient monitor and registered on a Vitatek 551 plotter. During the experiment the exposed tissue of the rat was covered with guaze and kept damp with normal saline.
(§3) The drugs and solvent controls were administered intravenously into the dorsal penile vein after stabilization of the blood pressure (BP) had occurred. After drug administration, the BP was recorded every 5 minutes for a period of 30 min.

[3] = test system: BD-9 rats (normatensive); assay: Antihypertensive test: mean arterial pressure in normotensive BD-9 rats; type: in vivo, rat; parameters: mean arterial BP (individual rats): unit not given here; settings: 1mg/kg intravenous; for mean arterial BP (individual rats): rats 1-6, 1 mg/kg; for mean arterial BP, Av. / Average % change in mean arterial BP: standard error of the mean in brackets; for Average % change in mean arterial BP: versus pre-dose control
Experimental: as §1, §2, §3

COC(=O)C1=C(C)NC(C)=C(C(=O)OC)C1c1ccccc1[N+](=O)[O-] [Nifedipine]
inhibition at 0.01 mg ([1]; dose 10 μg): 4% | inhibition at 0.0316 mg ([1]; dose 31.6 μg): 0.5% | inhibition at 0.1 mg ([1]; dose 100 μg): 9.5% | inhibition at 0.316 mg ([1]; dose 316 μg): -26% | inhibition at 1 mg ([1]; dose 1000 μg): 39.5% | mean arterial BP (individual rats) ([2]; 5 min): 105 and 67 and 88 and 85 and 80 and 74 | mean arterial BP, Av. ([2]; 5 min): 83(5) | Average % change in mean arterial BP ([2]; 5 min): 44(5.4) % | mean arterial BP (individual rats) ([2]; 10 min): 96 and 64 and 104 and 88 and 81 and 74 | mean arterial BP, Av. ([2]; 10 min): 85(6) | Average % change in mean arterial BP ([2]; 10 min): 43(6.0) % | mean arterial BP (individual rats) ([2]; 15 min): 95 and 68 and 107 and 93 and 84 and 77 | mean arterial BP, Av. ([2]; 15 min): 87(6) | Average % change in mean arterial BP ([2]; 15 min): 41(5.8) % | mean arterial BP (individual rats) ([2]; 20 min): 93 and 69 and 92 and 100 and 83 and 80 | mean arterial BP, Av. ([2]; 20 min): 86(5) | Average % change in mean arterial BP ([2]; 20 min): 42(4.2) % | mean arterial BP (individual rats) ([2]; 25 min): 95 and 71 and 93 and 106 and 79 and 84 | mean arterial BP, Av. ([2]; 25 min): 88(5) | Average % change in mean arterial BP ([2]; 25 min): 41(4.4) % | mean arterial BP (individual rats) ([2]; 30 min): 95 and 73 and 93 and 110 and 81 and 85 | mean arterial BP, Av. ([2]; 30 min): 90(5) | Average % change in mean arterial BP ([2]; 30 min): 40(4.3) % | mean arterial BP (individual rats) ([3]; 5 min): 67 and 59 (2×) and 80 and 74 and 60 | mean arterial BP, Av. ([3]; 5 min): 67(4) | Average % change in mean arterial BP ([3]; 5 min): 38(5.5) % | mean arterial BP (individual rats) ([3]; 10 min): 65 and 67 (2×) and 74 and 69 and 66 | mean arterial BP, Av. ([3]; 10 min): 68(1) | Average % change in mean arterial BP ([3]; 10 min): 37(4.4) % | mean arterial BP (individual rats) ([3]; 15 min): 68 and 66 (2×) and 65 and 74 and 63 | mean arterial BP, Av. ([3]; 15 min): 67(2) | Average % change in mean arterial BP ([3]; 15 min): 38(3.8) % | mean arterial BP (individual rats) ([3]; 20 min): 67 and 60 and 62 and 77 and 65 and 64 | mean arterial BP, Av. ([3]; 20 min): 66(2) | Average % change in mean arterial BP ([3]; 20 min): 39(3.1) % | mean arterial BP (individual rats) ([3]; 25 min): 63 (2×) and 55 and 62 and 80 and 67 | mean arterial BP, Av. ([3]; 25 min): 65(3) | Average % change in mean arterial BP ([3]; 25 min): 40(2.8) % | mean arterial BP (individual rats) ([3]; 30 min): 61 and 57 and 63 and 79 and 60 and 62 | mean arterial BP, Av. ([3]; 30 min): 64(3) | Average % change in mean arterial BP ([3]; 30 min): 41(3.4) %
